# Test results published in patent publication US20210254138A1, “SIALIC ACID TRANSPORTER PROTEINS AS BIOMARKERS AND DRUG TARGETS” (Quadram Institute Bioscience, priority 2018, published 2021).
# What was measured:
# [1] = test system: R. gnavus ATCC 29149 nan deletion mutants; experiment: Growth on sole carbon source, nan deletion mutants; type: cell-based; conditions: 11.1 mM in YCFA, anaerobic
# Source text: R. gnavus mutants were generated using the ClosTron methodology (Heap et al., 2010), which inserts an erythromycin resistance cassette into the gene of interest. Target sites were identified using the Pertuka method (Perutka et al., 2004). The re-targeted introns were synthesised and ligated into the pMTL007C-E2 vector by ATUM (MenloPark, USA). The plasmids were then transformed into E. coli CA434 using the heat-shock protocol, and the recombinant clones selected for chloramphenicol resistance. Recombinant E. coli cells were grown overnight in 10 ml LB, 1 ml of the overnight culture was pelleted and washed with PBS. The E. coli cell pellet was resuspended in 200 μl of an R. gnavus overnight culture and the cell suspension spotted onto a non-selective BHI-YH plate. […]
# (§1) The ability of the mutants to utilise sialic acids and sialoconjugates was assessed by supplementing YCFA with 11.1 mM of 2,7-anhydro-Neu5Ac, 3'SL, glucose or Neu5Ac in triplicate 200 μl cultures in 96-well microtiter plates. The OD595 nm was measured hourly for 10 h in an infinite F50 plate reader (Tecan, UK) housed within an anaerobic cabinet connected to Magellan V7.0 software.
# [2] = test system: R. gnavus ATCC 29149 wild-type; experiment: Growth on sole carbon source, wild-type strain; type: cell-based; conditions: 11.1 mM in YCFA, anaerobic
# Procedure: R. gnavus ATCC 29149 was routinely grown in an anaerobic cabinet (Don Whitley, Shipley, UK) in BHI-YH as previously described (Crost et al., 2013). Growth on single carbon sources utilized anaerobic basal YCFA medium (Duncan et al., 2002) supplemented with 11.1 mM of specific mono- or oligosaccharides (2,7-anhydro-Neu5Ac, 3'Sialyllactose (3'SL) or glucose). The bacteria were grown to late exponential phase for RNA extraction, the culture was performed in 14 ml tubes. Growth was determined spectrophotometrically by monitoring changes in optical density at […] compared to the same medium without bacterium (ΔOD595 nm) hourly for 10 hours.
# as §1
# [3] = molecular target: T1, RUMGNA_02695 (RgNanOx, oxidoreductase) (Mediterraneibacter gnavus, UniProt A7B558); experiment: RUMGNA_02695 enzymatic activity assay; type: biochemical, R. gnavus ATCC 29149
# T1 construct: the full length RgNanA and full length RUMGNA_02695 were amplified from R. gnavus ATCC 29149 gDNA; His6 (pHISTEV vector) (N); made in house; host or cells: E. coli BL21
# T1 sequence (A7B558 whole entry): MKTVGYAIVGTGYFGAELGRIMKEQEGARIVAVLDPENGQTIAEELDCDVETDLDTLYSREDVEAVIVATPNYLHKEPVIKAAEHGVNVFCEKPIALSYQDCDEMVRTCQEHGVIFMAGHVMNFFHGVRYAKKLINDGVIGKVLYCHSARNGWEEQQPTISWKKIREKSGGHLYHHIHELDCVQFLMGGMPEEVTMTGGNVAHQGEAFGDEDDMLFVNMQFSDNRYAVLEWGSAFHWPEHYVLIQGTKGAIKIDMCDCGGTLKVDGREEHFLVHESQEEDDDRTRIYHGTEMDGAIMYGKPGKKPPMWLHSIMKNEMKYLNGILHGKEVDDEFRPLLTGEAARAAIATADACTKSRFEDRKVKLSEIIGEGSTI
# Procedure: To assay RUMGNA_02695 activity against 2,7-anhydro-Neu5Ac, the purified recombinant protein was incubated in 100 μl reactions at 37° C. overnight with 1 mM 2,7-anhydro-Neu5Ac, 50 mM sodium phosphate buffer pH 7.0 and 500 μM NADH, NAD, FAD or no cofactor. The reactions were dried using a Concentrator Plus (Eppendorf) for 1 h. Samples were then resuspended in 50 μl of water and 50 μl of reaction buffer (1.74 mg of 1,2-Diamino-4,5-methylenedioxybenzene dihydrochloride (Carbosynth, UK), 324.6 μl MilliQ water, 88.6 μl glacial acetic acid, 58.2 μl of β-Mercaptoethanol and 79.3 μl of sodium hydrosulphite) and incubated for 2 h at 55° C. in the dark. The samples were then centrifuged for 1 min and filtered using a 0.45 μm filter into a glass HPLC vial and directly analysed by HPLC.
# DMB-labelled samples were analysed by injecting 10 μl onto a Luna 5 μm C-18(2) LC column 250×4.6 mm (Phenomenex) at 1 ml/min. Mobile phases methanol/acetonitrile/water were used for separation of fluorescently labelled sialic acids. The settings of the fluorescence detector were 373 nm excitation and 448 nm emission. Samples were run alongside a Neu5Ac standard.
# To determine the kinetic parameters of RUMGNA_02695 enzymatic reaction, a coupled reaction with lactate dehydrogenase and sialic acid aldolase was carried out as described above but with 15 μg of RgNanA and 10 μg RUMGNA_02695 in each reaction. For the kinetics assays, 1, 0.4, 0.2, 0.1, 0.04, 0.02 and 0.01 mM 2,7-anhydro-Neu5Ac was used and the initial rate of reaction determined for each concentration in triplicate before analysis was performed by fitting the data to a Michaelis-Menten using Graph Pad Prism (V 5.03).
# Electrospray ionisation spray mass spectrometry (ESI-MS) analysis was performed using the Applied Biosystems 4000 Q-TRAP. The full 100 μl reaction was diluted with 500 ul of 50% Acetonitrile and 0.1% formic acid and samples analysed in negative ion mode using direct injection.
# [4] = coupled reaction with excess aldolase and lactate dehydrogenase
structure (smiles),measurement,setting,value
"CC(=O)N[C@H]1C2OC(C(=O)O)(C[C@@H]1O)O[C@@H]2[C@H](O)CO (some centres unmarked) [2,7-anhydro-Neu5Ac]",growth on substrate as sole carbon source,[1],no growth was detected
same,utilisation as a sole carbon source (growth),[2],able to utilise
same,reaction product by HPLC after DMB labelling,"[3]; 1 mM substrate, in the presence of NAD+ or NADH, not with FAD or without cofactor",Neu5Ac was observed as a reaction product
same,Km,[3]; [4],74 ± 14 µM
same,kcat,[3]; [4],0.0824 ± 0.0043 s⁻¹
